Measured values published in patent US6121252A, “Phosphinic acid derivatives” (priority 1998, dated 2000).

How the values were obtained:
[1] = test system: cortical cell cultures; experiment: In vitro ischemia assay (KCN/2-DG) in cortical cell cultures; type: cell-based, rat
[2] = test system: SHRSP rats; experiment: Cortical injury following MCAO in SHRSP rats; type: in vivo, rat; conditions: for Cortical Injury Volume / Cortical Injury Volume (% injury): ± S.E.M., n = 10
Method: Rectal temperature is maintained at 37.0±0.50° C. throughout the surgical procedure using a heating lamp.

[3] = test system: Sprague-Dawley rats; experiment: Brain injury following MCAO in Sprague-Dawley rats; type: in vivo, rat; conditions: for mean total brain infarct volume: then 20 mg/kg/hr IV 4 hours
[4] = test system: dopaminergic neurons; experiment: Parkinson's Disease model: MPTP lesioned mice; type: in vivo, CD1 mice; conditions: 10 mg/kg, p<0.001
Method: To examine the effect of NAALADase inhibitors on Parkinson's Disease in vivo, MPTP lesioned mice were treated with 2-(phosphonomethyl)pentanedioicacid or a vehicle.
MPTP lesioning of dopaminergic neurons in mice was used as an animal model of Parkinson's Disease, as described by Steiner, Proc. Natl. Acad. Sci., Vol. 94, pp. 2019-2024 (March 1997). In brief, four week old male CD1 white mice were dosed IP with 30 mg/kg of MPTP for 5 days. […] At 18 days following MPTP treatment, the mice were sacrificed and their brains were removed and sectioned. Immunostaining was performed on saggital and coronal brain sections using anti-tyrosine hydroxylase (TH) antibodies to quantitate survival and recovery of dopaminergic neurons.

[5] = test system: spinal cord organotypic cultures; experiment: ALS model: ChAT activity of spinal cord organotypic cultures with THA; type: cell-based, rat
Method: Organotypic cultures were prepared from lumbar spinal cord of 8 day old rats, as described by Rothstein et al., J. Neurochem., Vol. 65, No. 2 (1995), and Rothstein et al., Proc. Natl. Acad. Sci. USA, Vol. 90, pp. 6591-6595 (July 1993). In brief, lumbar spinal cords were removed and sliced into […]-thick-dorsal-ventral sections, and five slices were placed on Millipore CM semipermeable 30-mm-diameter membrane inserts. The inserts were placed on 1 ml of culture medium in 35-mm-diameter culture wells. Culture medium consisted of 50% minimal essential medium and phosphate-free HEPES (25 mM), 25% heat-inactivated horse serum, and 25 Hanks' balanced salt solution (GIBCO) supplemented with D-glucose (25.6 mg/ml) and glutamine (2 mM), at a final pH of 7.2. Antibiotic and antifungal agents were not used. Cultures were incubated at 37° C. in 5% CO2 containing humidified environment (Forma Scientific). Culture medium, along with any added pharmacological agents, was changed twice weekly.
Drugs were incubated for an additional 13 to 20 days with the 100 μM THA. At the end of this period, cultures were collected assayed for ChAT activity as described below.
To determine choline acetyltransferase (CHAT) activity, the spinal cord tissues in each dish (five slices) were pooled and frozen (-75° C.) until assay. CHAT activity was measured radiometrically by described methods using [^3 H]acetyl-CoA (Amersham; Fonnum, 1975). Protein content of tissue homogenate was determined by a Coomassi Protein Assay kit (Pierce, Rockford, Ill.).

[6] = test system: Dunning G tumors; experiment: In vivo Dunning G tumor model, subcutaneous Compound 3; parameters: species or system male Copenhagen syngenic rats
Method: Male Copenhagen syngenic rats, age 8 to 10 weeks, were injected in both flanks with 10^7 Dunning G cells. […] Controls received 50 mM HEPES s.c. daily. Tumors were measured twice a week.
Response to treatment was monitored in two ways. First, mean tumor volume for each group was presented as tumor:control ratio (% T/C) and these values were compared at one point in time. Second, tumor volume versus time was monitored.

[7] = Rattus norvegicus, read-out: % Toxicity
[8] = 10 mg/kg then 2 mg/kg/hr for 1 hour
[9] = 100 mg/kg then 20 mg/kg/hr for one hour

SMILES: O=C(O)CCC(CP(=O)(O)O)C(=O)O (centres unmarked) [Compound 3, 2-(phosphonomethyl)pentanedioic acid]
- ischemic toxicity (in words) ([1]; 100 pM to 1 μM): toxicity decreased as the concentration of 2-(phosphonomethyl)pentanedioic acid increased
- activity at 0.0001 µM [1, 7]: 66.6 ± 4.38%
- activity at 0.001 µM [1, 7]: 42.3 ± 9.34%
- activity at 0.01 µM [1, 7]: 33.1 ± 9.62%
- activity at 0.1 µM [1, 7]: 30.2 ± 9.43%
- activity at 1 µM [1, 7]: 8.56 ± 8.22%
- Cortical Protection [2, 8]: 27 % protection
- Cortical Injury Volume [2, 8]: 135.00 ± 32.18 mm^3
- Cortical Injury Volume (% injury) [2, 8]: 29.14 ± 7.68 % injury
- Cortical Protection [2, 9]: 65 % protection
- Cortical Injury Volume [2, 9]: 65.23 ± 32.18 mm^3
- Cortical Injury Volume (% injury) [2, 9]: 13.98 ± 6.64 % injury
- mean total brain infarct volume ([3]; 100 mg/kg IP 20 minute pre-treatment, p=0.003 vs. vehicle (293±26)): 122±26 mm^3
- mean total brain infarct volume ([3]; 100 mg/kg IP 30 minute post-treatment, p=0.2 vs. vehicle (293±26)): 208±40 mm^3
- mean total brain infarct volume ([3]; 100 mg/kg IP 60 minute post-treatment, p=0.015 vs. vehicle (293±26)): 125±57 mm^3
- mean total brain infarct volume ([3]; 100 mg/kg IP 120 minute post-treatment, p=0.005 vs. vehicle (293±26)): 133±35 mm^3
- neuroprotection in rat MCAO model (in words) ([3]; up to 2 hours post-occlusion): neuroprotective in rat MCAO model of stroke when administered up to 2 hours post-occlusion
- recovery of TH-stained dopaminergic neurons (in words) [4]: significant recovery of TH-stained dopaminergic neurons
- protection against THA-induced toxicity (in words) ([5]; 1 nM to 10 μM, THA 100 μM, 14 days): dose-dependent protection against THA-induced toxicity with maximal effects at 1 μM
- protection from THA toxicity (in words) ([5]; 100 nM - 10 μM with THA): significantly protected the cultures from THA toxicity
- ChAT Activity ([5]; 2-(phosphonomethyl)pentanedioic acid alone): 108 ± 18.4 % of Control
- ChAT Activity ([5]; with THA): 121 ± 18.8 % of Control
- effect on tumor growth (in words) ([6]; 1 mg/kg s.c.): no effect on tumor growth
- effect on tumor growth (in words) ([6]; 3 mg/kg s.c.): no effect on tumor growth
- tumor size, % of controls ([6]; 10 mg/kg s.c., p=0.03): 38 % of controls
- tumor size, % of controls ([6]; 30 mg/kg s.c.): 22 % of controls
